Data reported in US20130310326A1, “Histatin for Corneal Wound Healing and Ocular Surface Disease” (RAPID PATHOGEN SCREENING, INC., priority 2012, published 2013).

Tested on: corneal wounds (epithelial defects in the right eye)
Test: Corneal wound healing in rabbits (epithelial defect, fluorescein staining, computerized area determination)
Type: in vivo, New Zealand White rabbits
Details: for Percentage of 1 hour post wound size: approximate, without standard deviation
Method: The study disclosed herein evaluates and quantifies the wound healing effects of histatins on the ocular surface of New Zealand White rabbits.
Epithelial defects are created in the right eye (oculus dexter, OD) of 12 New Zealand White rabbits. Due to animal regulations, bilateral wounding is not permitted. After the epithelial defects are made, the rabbits are randomized into treatment groups. Two (2) groups are treated with different cyclized histatin concentrations: 0.1 μg/ml and 10 μg/ml dissolved into an ophthalmic artificial tear preparation and delivered to the rabbits as an eye drop three times daily. Histatins known in the art, including, but not limited to, amino acid SEQ. ID. NOs. 1 through 33, which include Hst-1 (SEQ. ID. NO. 4), Hst-2 (SEQ. ID. NO. 5), Hst-3 (SEQ. ID. NO. 6), Hst-5 (SEQ. ID. NO. 30), and sortase cyclized histatin (SEQ. ID. NO. 33), may be used in these studies or in treatment protocols. […] This control group should receive the same vehicle identical to the other two groups but without histatin. An over-the-counter artificial tear preferably serves as the vehicle. The initial study included four (4) animals/group in three (3) groups, for a total of twelve rabbits.
Each rabbit group is preferably given moxifloxicin treatment to prevent infection.
The corneal wounds are then evaluated daily for the corneal wound healing abilities of histatin via fluorescein staining, fluorescent slit lamp biomicrophotography and computerized area determination. Evaluators are masked to the therapeutic treatment given to the rabbits. After healing, two (2) animals from each group are euthanized, and the corneas collected for histological processing (H&E staining with subsequent evaluation by veterinary histopathologist). The decision to perform histopathologic analysis after tissue procurement is made only if there is proven difference in healing between the different treatment groups and the controls. At study termination (study preferably continues for seven days), the remaining animals are euthanized.
The histatin used in this study was cyclized histatin 1. The histatin 1 used was a sortase cyclized histatin with amino acid SEQ. ID. NO.

“cyclo(DNLPETGGDSHEKRHHGYRRKFHEKHHSHREFPFYGDYGSNYLY) [cyclized histatin 1]” gave a corneal wound size (0.1 μg/ml eye drop three times daily, 0 hours post wound) of 112.7 ± 37.8 mm^2, a corneal wound size (0.1 μg/ml eye drop three times daily, 6 hours post wound) of 96.2 ± 13.6 mm^2 and a corneal wound size (0.1 μg/ml eye drop three times daily, 24 hours post wound) of 77.5 ± 25.0 mm^2. It also gave a corneal wound size (0.1 μg/ml eye drop three times daily, 30 hours post wound) of 48.8 ± 8.0 mm^2, a corneal wound size (0.1 μg/ml eye drop three times daily, 48 hours post wound) of 2.7 ± 3.1 mm^2 and a corneal wound size (0.1 μg/ml eye drop three times daily, 54 hours post wound) of 0.00 ± 0.00 mm^2. For the same substance, the corneal wound size (0.1 μg/ml eye drop three times daily, 72 hours post wound) was 0.00 ± 0.00 mm^2, the “healing activity of corneal wounds versus control” value (0.1 μg/ml or 10 μg/ml versus vehicle control, rabbits) was “significant dose dependent accelerated healing activity” and the “Percentage of 1 hour post wound size” value (0.1 ug/ml, 0 hours post wound) was 100%. For the same substance, the “Percentage of 1 hour post wound size” value (0.1 ug/ml, 6 hours post wound) was 85%, the “Percentage of 1 hour post wound size” value (0.1 ug/ml, 24 hours post wound) was 69% and the “Percentage of 1 hour post wound size” value (0.1 ug/ml, 30 hours post wound) was 43%. The “Percentage of 1 hour post wound size” value (0.1 ug/ml, 48 hours post wound) was 2%, the “Percentage of 1 hour post wound size” value (0.1 ug/ml, 54 hours post wound) was 0% and the “Percentage of 1 hour post wound size” value (0.1 ug/ml, 72 hours post wound) was 0%. It also gave a corneal wound size (10 μg/ml eye drop three times daily, 0 hours post wound) of 88.4 ± 31.6 mm^2, a corneal wound size (10 μg/ml eye drop three times daily, 6 hours post wound) of 74.0 ± 14.7 mm^2 and a corneal wound size (10 μg/ml eye drop three times daily, 24 hours post wound) of 51.4 ± 9.3 mm^2. It also gave a corneal wound size (10 μg/ml eye drop three times daily, 30 hours post wound) of 37.7 ± 9.4 mm^2, a corneal wound size (10 μg/ml eye drop three times daily, 48 hours post wound) of 0.00 ± 0.07 mm^2 and a corneal wound size (10 μg/ml eye drop three times daily, 54 hours post wound) of 0.00 ± 0.00 mm^2. The corneal wound size (10 μg/ml eye drop three times daily, 72 hours post wound) was 0.00 ± 0.00 mm^2, the “Percentage of 1 hour post wound size” value (10 ug/ml, 0 hours post wound) was 100% and the “Percentage of 1 hour post wound size” value (10 ug/ml, 6 hours post wound) was 84%. For the same substance, the “Percentage of 1 hour post wound size” value (10 ug/ml, 24 hours post wound) was 58%, the “Percentage of 1 hour post wound size” value (10 ug/ml, 30 hours post wound) was 43% and the “Percentage of 1 hour post wound size” value (10 ug/ml, 48 hours post wound) was 0%. The “Percentage of 1 hour post wound size” value (10 ug/ml, 54 hours post wound) was 0% and the “Percentage of 1 hour post wound size” value (10 ug/ml, 72 hours post wound) was 0%.
